Row | melting point | Compound
1 | > 250 °C | COC(=O)c1cccc2[nH]c(Sc3cccc4c(=O)cc[nH]c34)nc12 [Example 3, 2-(4-Oxo-1,4-dihydro-quinolin-8-ylsulfanyl)-1H-benzoimidazole-4-carboxylic Acid Methyl Ester]
2 | 376 °C (dec.) | N#Cc1c(Cl)ccc2[nH]c(Sc3cccc4c(=O)cc[nH]c34)nc12 [Example 8, 5-Chloro-2-[(4-oxo-1,4-dihydroquinolin-8-yl)thio]-1H-benzimidazole-4-carbonitrile]
3 | 243 to 246 °C | C[S+]([O-])c1c[nH]c2c(Sc3nc4cc(Cl)ccc4[nH]3)ccc([N+](=O)[O-])c12 (stereo not drawn) [Example 16, 5-Chloro-2-([3-(methylsulfinyl)-4-nitro-1H-indol-7-yl]thio}-1H-benzimidazole]

Reference: patent US20050075334A1, “Novel compounds” (priority 2001, published 2005)
